Among the data in patent US11771738B2 (Zoetis Services LLC, priority 2018, dated 2023) are minimal effective concentration and DiMf/DiL4 values, retold here.

Read-outs that look alike come from different tables or passages of the source.

Common to all, as to type: cell-based
For assay [1], the system named is third stage larvae of Haemonchus contortus. Nature of the assay: Haemonchus contortus, Larvae Stage 3 (HcL3) In Vitro Assay. Particulars: Haemonchus contortus, 96 h.
In another assay the test system is D. immitis L4 larvae. Briefly: Dirofilaria immitis, L4 Stage (DiL4) In Vitro Assay. Particulars: for minimal effective concentration: Dirofilaria immitis, 72 h, read-out: DiL4 MED, Minimum Effective Dose, D. immitis L4 larvae motility, in vitro; for DiMf/DiL4: larval stage selectivity, ratio of DiMf MED to DiL4 MED.
Assay [2] deals with microfilariae of Dirofilaria immitis. Briefly: Dirofilaria immitis, Microfilaria (DiMf) In Vitro Assay. Particulars: Dirofilaria immitis, 72 h, read-out: DiMf MED, Minimum Effective Dose, D. immitis microfilariae motility, in vitro.
[3] abbreviates: read-out: HcL3 MED (symbol after Ex#), approximately 96 hours incubation, multiple-resistant field isolate.
[4] abbreviates: read-out: HcL3 MED, Minimum Effective Dose, H. contortus third stage larvae, approximately 96 hours.
The mark [5] stands for this setting: read-out: HcL3 MED, approximately 96 hours incubation, multiple-resistant field isolate.
The mark [6] stands for this setting: read-out: HcL3 MED, Haemonchus contortus third stage larvae in vitro, class mark appended to the Ex # in Table 3.

With `COC(c1ccc(C[C@H]2OC(=O)[C@H](CC(C)C)N(C)C(=O)[C@@H](C)OC(=O)[C@H](CC(C)C)N(C)C(=O)[C@@H](Cc3ccccc3)OC(=O)[C@H](CC(C)C)N(C)C(=O)[C@@H](C)OC(=O)[C@H](CC(C)C)N(C)C2=O)cc1)c1ccc(F)c(F)c1` (stereo partly drawn) [Example 2-37, (3S,6R,9S,12R,15S,18R,21S,24R)-6-benzyl-18-(4-((3,4-difluorophenyl)(methoxy)methyl)benzyl)-3,9,15,21-tetraisobutyl-4,10,12,16,22,24-hexamethyl-1,7,13,19-tetraoxa-4,10,16,22-tetraazacyclotetracosan-2,5,8,11,14,17,20,23-octaone], the minimal effective concentration in assay [1] (setting [3]) is 1 to 3.3 µM; in assay [1] (setting [4]), 3.3 µM; with D. immitis L4 larvae, 0.001 µM; in assay [2], 0.02 µM. In addition, the DiMf/DiL4 in the assay with D. immitis L4 larvae is listed as 20.

With `CCOC(c1ccc(C[C@H]2OC(=O)[C@H](CC(C)C)N(C)C(=O)[C@@H](C)OC(=O)[C@H](CC(C)C)N(C)C(=O)[C@@H](Cc3ccccc3)OC(=O)[C@H](CC(C)C)N(C)C(=O)[C@@H](C)OC(=O)[C@H](CC(C)C)N(C)C2=O)cc1)c1ccc(F)c(F)c1` (stereo partly drawn) [Example 2-38, (3S,6R,9S,12R,15S,18R,21S,24R)-6-benzyl-18-(4-((3,4-difluorophenyl)(ethoxy)methyl)benzyl)-3,9,15,21-tetraisobutyl-4,10,12,16,22,24-hexamethyl-1,7,13,19-tetraoxa-4,10,16,22-tetraazacyclotetracosan-2,5,8,11,14,17,20,23-octaone], the minimal effective concentration in assay [1] (setting [3]) was < 1 µM; in assay [1] (setting [4]) it was 0.5 µM; in assay [1] (setting [5]) it was ≤ 1 µM; with D. immitis L4 larvae, 0.0006 µM; in assay [2], 0.03 µM. For the same compound, in the assay on D. immitis L4 larvae, the DiMf/DiL4 is on record as 50.

For the compound `CC(C)C[C@H]1C(=O)O[C@H](Cc2ccc([C@@H](c3ccc(OC(F)(F)F)cc3)N3CCOCC3)cc2)C(=O)N(C)[C@@H](CC(C)C)C(=O)O[C@H](C)C(=O)N(C)[C@@H](CC(C)C)C(=O)O[C@H](Cc2ccccc2)C(=O)N(C)[C@@H](CC(C)C)C(=O)O[C@@H](C)C(=O)N1C` [Example 2-42, (3S,6R,9S,12R,15S,18R,21S,24S)-6-benzyl-3,9,15,21-tetraisobutyl-4,10,12,16,22,24-hexamethyl-18-[[4-[(S)-morpholino-[4-(trifluoromethoxy)phenyl]-methyl]phenyl]methyl]-1,7,13,19-tetraoxa-4,10,16,22-tetrazacyclotetracosane-2,5,8,11,14,17,20,23-octaone], the minimal effective concentration in assay [1] (setting [4]) is > 10 µM; in the assay with D. immitis L4 larvae, 0.0003 µM; in assay [2], 0.3 µM. In addition, in the assay with D. immitis L4 larvae, the DiMf/DiL4 was 1000.

Turning to `CC(C)C[C@H]1C(=O)O[C@H](Cc2ccc(Cc3cccs3)cc2)C(=O)N(C)[C@@H](CC(C)C)C(=O)O[C@H](C)C(=O)N(C)[C@@H](CC(C)C)C(=O)O[C@H](Cc2ccc(Cc3cccs3)cc2)C(=O)N(C)[C@@H](CC(C)C)C(=O)O[C@H](C)C(=O)N1C` [Example 3-4, (3S,6R,9S,12R,15S,18R,21S,24R)-3,9,15,21-tetraisobutyl-4,6,10,16,18,22-hexamethyl-12,24-bis(4-(thiophen-2-ylmethyl)benzyl)-1,7,13,19-tetraoxa-4,10,16,22-tetraazacyclotetracosan-2,5,8,11,14,17,20,23-octaone], the minimal effective concentration was < 1 µM in assay [1] (setting [6]); 0.5 µM in assay [1] (setting [4]); ≤ 1 µM in assay [1] (setting [5]); 0.0001 µM in the assay on D. immitis L4 larvae; 0.02 µM in assay [2]. The DiMf/DiL4 in the assay on D. immitis L4 larvae was found to be 200.

Regarding `CC(C)C[C@H]1C(=O)O[C@H](Cc2ccc(Cc3ccco3)cc2)C(=O)N(C)[C@@H](CC(C)C)C(=O)O[C@H](C)C(=O)N(C)[C@@H](CC(C)C)C(=O)O[C@H](Cc2ccc(Cc3ccco3)cc2)C(=O)N(C)[C@@H](CC(C)C)C(=O)O[C@H](C)C(=O)N1C` [Example 3-8, (3S,6R,9S,12R,15S,18R,21S,24R)-6,18-bis(4-(furan-2-ylmethyl)benzyl)-3,9,15,21-tetraisobutyl-4,10,12,16,22,24-hexamethyl-1,7,13,19-tetraoxa-4,10,16,22-tetraazacyclotetracosan-2,5,8,11,14,17,20,23-octaone], the minimal effective concentration in assay [1] (setting [6]) is < 1 µM; in assay [1] (setting [4]) it was 1 µM; in assay [1] (setting [5]) it was ≤ 1 µM; in the assay with D. immitis L4 larvae it was 0.0003 µM; in assay [2], 0.01 µM. For the same compound, the DiMf/DiL4 in the assay on D. immitis L4 larvae is on record as 33.3.

Take `CC(C)C[C@H]1C(=O)O[C@H](Cc2ccc(Cc3cncs3)cc2)C(=O)N(C)[C@@H](CC(C)C)C(=O)O[C@H](C)C(=O)N(C)[C@@H](CC(C)C)C(=O)O[C@H](Cc2ccc(Cc3cncs3)cc2)C(=O)N(C)[C@@H](CC(C)C)C(=O)O[C@H](C)C(=O)N1C` [Example 3-12, (3S,6R,9S,12R,15S,18R,21S,24R)-3,9,15,21-tetraisobutyl-4,6,10,16,18,22-hexamethyl-12,24-bis(4-(thiazol-5-ylmethyl)benzyl)-1,7,13,19-tetraoxa-4,10,16,22-tetraazacyclotetracosan-2,5,8,11,14,17,20,23-octaone]: the minimal effective concentration is 1 to 3.3 µM in assay [1] (setting [6]), 3.3 µM in assay [1] (setting [4]), 0.001 µM in the assay on D. immitis L4 larvae and 0.0007 µM in assay [2]. For the same compound, the DiMf/DiL4 in the assay on D. immitis L4 larvae came to 0.7.

As for `CC(C)C[C@H]1C(=O)O[C@H](Cc2ccc(Cc3nccs3)cc2)C(=O)N(C)[C@@H](CC(C)C)C(=O)O[C@H](C)C(=O)N(C)[C@@H](CC(C)C)C(=O)O[C@H](Cc2ccc(Cc3nccs3)cc2)C(=O)N(C)[C@@H](CC(C)C)C(=O)O[C@H](C)C(=O)N1C` [Example 3-17, (3S,6R,9S,12R,15S,18R,21S,24R)-3,9,15,21-tetraisobutyl-4,6,10,16,18,22-hexamethyl-12,24-bis(4-(thiazol-2-ylmethyl)benzyl)-1,7,13,19-tetraoxa-4,10,16,22-tetraazacyclotetracosan-2,5,8,11,14,17,20,23-octaone], the minimal effective concentration was < 1 µM in assay [1] (setting [6]); 0.5 µM in assay [1] (setting [4]); ≤ 1 µM in assay [1] (setting [5]); 0.0003 µM with D. immitis L4 larvae; 0.0003 µM in assay [2]. In addition, the DiMf/DiL4 in the assay with D. immitis L4 larvae is listed as 1.

For `CC(C)C[C@H]1C(=O)O[C@H](Cc2ccc(Cc3ncco3)cc2)C(=O)N(C)[C@@H](CC(C)C)C(=O)O[C@H](C)C(=O)N(C)[C@@H](CC(C)C)C(=O)O[C@H](Cc2ccc(Cc3ncco3)cc2)C(=O)N(C)[C@@H](CC(C)C)C(=O)O[C@H](C)C(=O)N1C` [Example 3-18, (3S,6R,9S,12R,15S,18R,21S,24R)-3,9,15,21-tetraisobutyl-4,6,10,16,18,22-hexamethyl-12,24-bis(4-(oxazol-2-ylmethyl)benzyl)-1,7,13,19-tetraoxa-4,10,16,22-tetraazacyclotetracosan-2,5,8,11,14,17,20,23-octaone], the minimal effective concentration in assay [1] (setting [6]) was < 1 µM; in assay [1] (setting [4]), 1 µM; in assay [1] (setting [5]) it was ≤ 1 µM; in the assay on D. immitis L4 larvae, 0.0001 µM; in assay [2], 0.0002 µM. For the same compound, in the assay with D. immitis L4 larvae, the DiMf/DiL4 was 2.

As to `Cc1noc(C)c1Cc1ccc(C[C@H]2OC(=O)[C@H](CC(C)C)N(C)C(=O)[C@@H](C)OC(=O)[C@H](CC(C)C)N(C)C(=O)[C@@H](Cc3ccc(Cc4c(C)noc4C)cc3)OC(=O)[C@H](CC(C)C)N(C)C(=O)[C@@H](C)OC(=O)[C@H](CC(C)C)N(C)C2=O)cc1` [Example 3-21, (3S,6R,9S,12R,15S,18R,21S,24R)-6,18-bis(4-((3,5-dimethylisoxazol-4-yl)methyl)benzyl)-3,9,15,21-tetraisobutyl-4,10,12,16,22,24-hexamethyl-1,7,13,19-tetraoxa-4,10,16,22-tetraazacyclotetracosan-2,5,8,11,14,17,20,23-octaone], the minimal effective concentration in assay [1] (setting [6]) is < 1 µM; in assay [1] (setting [4]), 0.3 µM; in assay [1] (setting [5]) it was ≤ 1 µM; with D. immitis L4 larvae it was < 3e-05 µM; in assay [2], 0.0001 µM. For the same compound, the DiMf/DiL4 in the assay with D. immitis L4 larvae is >3.3.

`CC(C)C[C@H]1C(=O)O[C@H](Cc2ccc(Cc3ccnn3C)cc2)C(=O)N(C)[C@@H](CC(C)C)C(=O)O[C@H](C)C(=O)N(C)[C@@H](CC(C)C)C(=O)O[C@H](Cc2ccc(Cc3ccnn3C)cc2)C(=O)N(C)[C@@H](CC(C)C)C(=O)O[C@H](C)C(=O)N1C` [Example 3-24, (3S,6R,9S,12R,15S,18R,21S,24R)-3,9,15,21-tetraisobutyl-4,6,10,16,18,22-hexamethyl-12,24-bis(4-((1-methyl-1H-pyrazol-5-yl)methyl)benzyl)-1,7,13,19-tetraoxa-4,10,16,22-tetraazacyclotetracosan-2,5,8,11,14,17,20,23-octaone]: the minimal effective concentration in assay [1] (setting [6]) was < 1 µM; in assay [1] (setting [4]), 1 µM; in assay [1] (setting [5]), ≤ 1 µM; with D. immitis L4 larvae, 3e-05 µM; in assay [2], 0.0001 µM. Besides, the DiMf/DiL4 with D. immitis L4 larvae is 3.3.
